Literature values as cited in patent US9820956B2, “Compositions and methods for treating metabolic disorders” (PreKUlab, Ltd., priority 2003, dated 2017).
Where two headings read alike, the source gives them in different places.

Legend:
[1] = test system: BBB transport system for basic amino acids
[2] = test system: Phe transport in Caco-2 cells; conditions: for % inhibition of Phe transport: 10 μM Phe, 1 mM of each competing amino acid, Caco-2 monolayers; for inhibition of Phe transport in human intestinal epithelial cells (in words): Caco-2
[3] = test system: LNAA transport system in the BBB
[4] = test system: intestinal epithelia transport
[5] = test system: BBB transport system for acidic amino acids
[6] = absolute Km at BBB, basic amino acids, read-out: Km
[7] = apparent Km at BBB, basic aa's, read-out: Km(app)
[8] = absolute Km at BBB, neutral amino acid system, read-out: Km
[9] = apparent Km at BBB in presence of competing LNAAs, LNAA's, read-out: Km(app)

Row | Compound | % inhibition of Phe transport [2] [%] | Km [3, 8] [µM] | Km [3, 9] [µM] | Km [4] [µM] | also measured
1 | NCCCC[C@H](N)C(=O)O [Lys, lysine] | 50 |  |  |  | Km [1, 6]: 100 µM; Km [1, 7]: 250 µM; inhibition of Phe transport in human intestinal epithelial cells (in words) [2]: strong inhibition
2 | N[C@@H](Cc1c[nH]c2ccccc12)C(=O)O [Trp, tryptophan] | 36 | 190 | 710 |  | 
3 | CSCC[C@H](N)C(=O)O [Met, methionine] |  | 190 | 770 | 5000 | 
4 | N[C@@H](Cc1c[nH]cn1)C(=O)O [His, histidine] | 33 |  |  | 6000 | Km [1, 6]: 280 µM; Km [1, 7]: 1100 µM
5 | CC(C)C[C@H](N)C(=O)O [Leu, leucine] | 55 | 150 | 530 | 2000 | inhibition of Phe transport in human intestinal epithelial cells (in words) [2]: strong inhibitor
6 | C[C@@H](O)[C@H](N)C(=O)O [Threo] |  | 730 | 3000 |  | 
7 | CC[C@H](C)[C@H](N)C(=O)O [iLeu, isoleucine] |  | 330 | 1300 |  | 
8 | CC(C)[C@H](N)C(=O)O [Val, valine] |  | 630 | 2500 | 3000 | 
9 | N[C@@H](Cc1ccccc1)C(=O)O [Phe, phenylalanine] |  | 120 | 450 | 1000 | Km ([2]; Caco-2, measured by Hidalgo, read-out: Km for Phe at the intestinal cell transport system): 560 µM
10 | N[C@@H](CCC(=O)O)C(=O)O [Glu] |  |  |  |  | Km [5]: 40 µM
11 | N[C@@H](Cc1ccc(O)cc1)C(=O)O [Tyr, tyrosine] | 45 | 160 | 580 |  | 
12 | N=C(N)NCCC[C@H](N)C(=O)O [Arg, arginine] |  |  |  |  | Km [1, 6]: 90 µM; Km [1, 7]: 400 µM
